Data taken from patent US6699875B2, “Cascade esters of camptothecins and methods of treating cancer using these compounds” (priority 2002, dated 2004).

Key:
[1] = Metabolism and pharmacokinetics of camptothecin in human plasma; type: in vitro ADME
[2] = Closed lactone form of CPT in plasma after intrastomach administration in mice; type: in vivo
[3] = Closed lactone form of CPT in plasma after oral administration in humans; type: in vivo
human malignancies = test: Clinical responses in Phase I clinical trial patients; type: in vivo; details: in humans, oral
Text: Clearly, there is a pressing need for a modification which will slow and delay the lactone ring opening upon its entrance into the blood circulation.

[4] = Plasma level of closed lactone form of 9NC after i.s. administration; type: in vivo, mice
[5] = Plasma level of closed lactone form of 9NC after oral administration to Phase I patients; type: in vivo, humans; details: after oral administration to Phase I clinical trial patients, on average
human tumor xenografts = details: in mice; cited from earlier work
[6] = sodium carboxylate salt vs closed lactone camptothecin; cited from earlier work

**Q.** For 20(S)-camptothecin [CPT], which “half-life time of the drug with lactone intact” value [1] is on record?
**A.** The value was 30 min.

**Q.** What about the metabolite detected [1] of the same compound?
**A.** Its metabolite detected is “the only metabolite detected is the ring-opened sodium carboxylate salt”.

**Q.** What about the “closed lactone form, share of the area under the curve” value [2] of the same compound?
**A.** The value was “approximately 54%”.

**Q.** And the “closed lactone form, share of the area under the curve” value [3]?
**A.** Its value is “about 0.4%”.

**Q.** Which complete tumor regressions (human malignancies) does the source give for CC[C@@]1(O)C(=O)OCc2c1cc1n(c2=O)Cc2cc3c([N+](=O)[O-])cccc3nc2-1 [9NC, 9-nitrocamptothecin] here?
**A.** Its complete tumor regressions is 2/32.

**Q.** What about the “share of drug present in the plasma in the closed lactone form” value [4] of the same compound?
**A.** Its value is 57%.

**Q.** What about the “share of drug present in the plasma in the closed lactone form” value [5] of the same compound?
**A.** Its value is ~3%.

**Q.** What about the complete tumor regressions (human tumor xenografts) of the same compound?
**A.** Its complete tumor regressions is 32/32.

**Q.** What about the “potency relative to CPT against human tumor xenografts” value (human tumor xenografts) of the same compound?
**A.** Its value is 2-3 times.

**Q.** For CC[C@@](O)(C(=O)[O-])c1cc2n(c(=O)c1CO)Cc1cc3ccccc3nc1-2.[Na+] [sodium carboxylate salt], which “potency relative to native camptothecin with the closed lactone ring intact” value [6] is on record?
**A.** Its value is 10%.
